Counter-ions that a name gives are not always drawn.
Assay: solubility in water
Assay type: physicochemical

- solubility (in water) of olanexidine hydrochloride alone (at 0° C.): 0.02%
- solubility in water (at 0° C.): 0.02 W/V %
- Solubility (at 25° C., water, pH adjusted to 6): 0.05 W/V %
Compound: CCCCCCCCNC(=N)NC(=N)NCc1ccc(Cl)c(Cl)c1 [olanexidine hydrochloride, 1-(3,4-dichlorobenzyl)-5-octylbiguanide]
